Measured values: patent US11618743B2, “Herbicidal compounds” (SYNGENTA PARTICIPATIONS AG, priority 2017, dated 2023)

Assays:
Assay in all cases: Post-emergence efficacy, Method A
Format in all cases: in vivo
[1] = tested on: Amaranthus palmeri (AMAPA); conditions: Application rate 500 g/Ha, evaluated after 13 days; for Control of weed species AMAPA after post-emergence application (100=total damage to plant; 0=no damage to plant): Method A; for Control of weed species after post-emergence application, AMAPA: 100=total damage to plant, 0=no damage
Experimental: (§1) Seeds of a variety of test species were sown in standard soil in pots. After cultivation for 14 days (post-emergence) under controlled conditions in a glasshouse (at 24/16° C., day/night; 14 hours light; 65% humidity), the plants were sprayed with an aqueous spray solution derived from the dissolution of the technical active ingredient formula (I) in a small amount of acetone and a special solvent and emulsifier mixture referred to as IF50 (11.12% Emulsogen EL360 TM+44.44% N-methylpyrrolidone+44.44% Dowanol DPM glycol ether), to create a 50 g/l solution which was then diluted to required concentration using 0.25% or 1% Empicol ESC70 (Sodium lauryl ether sulphate)+1% ammonium sulphate as diluent.
(§2) The test plants were then grown in a glasshouse under controlled conditions (at 24/16° C., day/night; 14 hours light; 65% humidity) and watered twice daily. After 13 days the test was evaluated (100=total damage to plant; 0=no damage to plant).
(§3) Ipomoea hederacea (IPOHE), Euphorbia heterophylla (EPHHL), Chenopodium album (CHEAL), Amaranthus palmeri (AMAPA), Lolium perenne (LOLPE), Digitaria sanguinalis (DIGSA), Eleusine indica (ELEIN), Echinochloa crus-galli (ECHCG), Setaria faberi (SETFA)

[2] = tested on: Chenopodium album (CHEAL); conditions: Application rate 500 g/Ha, evaluated after 13 days; for Control of weed species CHEAL after post-emergence application (100=total damage to plant; 0=no damage to plant): Method A; for Control of weed species after post-emergence application, CHEAL: 100=total damage to plant, 0=no damage
Experimental: as §1, §2, §3

[3] = tested on: Digitaria sanguinalis (DIGSA); conditions: Application rate 500 g/Ha, evaluated after 13 days; for Control of weed species DIGSA after post-emergence application (100=total damage to plant; 0=no damage to plant): Method A; for Control of weed species after post-emergence application, DIGSA: 100=total damage to plant, 0=no damage
Experimental: as §1, §2, §3

[4] = tested on: Echinochloa crus-galli (ECHCG); conditions: Application rate 500 g/Ha, evaluated after 13 days; for Control of weed species ECHCG after post-emergence application (100=total damage to plant; 0=no damage to plant): Method A; for Control of weed species after post-emergence application, ECHCG: 100=total damage to plant, 0=no damage
Experimental: as §1, §2, §3

Eleusine indica (ELEIN) = conditions: Application rate 500 g/Ha, evaluated after 13 days; for Control of weed species ELEIN after post-emergence application (100=total damage to plant; 0=no damage to plant): Method A; for Control of weed species after post-emergence application, ELEIN: 100=total damage to plant, 0=no damage
Experimental: as §1, §2, §3

[5] = tested on: Euphorbia heterophylla (EPHHL); conditions: Application rate 500 g/Ha, evaluated after 13 days; for Control of weed species EPHHL after post-emergence application (100=total damage to plant; 0=no damage to plant): Method A; for Control of weed species after post-emergence application, EPHHL: 100=total damage to plant, 0=no damage
Experimental: as §1, §2, §3

Setaria faberi (SETFA) = conditions: Application rate 500 g/Ha, evaluated after 13 days; for Control of weed species SETFA after post-emergence application (100=total damage to plant; 0=no damage to plant): Method A; for Control of weed species after post-emergence application, SETFA: 100=total damage to plant, 0=no damage
Experimental: as §1, §2, §3

Cc1n[n+](CCC(=O)O)ccc1-c1ncccn1.[Cl-] [Compound A133]
Control of weed species AMAPA after post-emergence application (100=total damage to plant; 0=no damage to plant) [1]: 60
Control of weed species CHEAL after post-emergence application (100=total damage to plant; 0=no damage to plant) [2]: 40
Control of weed species DIGSA after post-emergence application (100=total damage to plant; 0=no damage to plant) [3]: 70
Control of weed species ECHCG after post-emergence application (100=total damage to plant; 0=no damage to plant) [4]: 70
Control of weed species ELEIN after post-emergence application (100=total damage to plant; 0=no damage to plant) (Eleusine indica (ELEIN)): 90
Control of weed species EPHHL after post-emergence application (100=total damage to plant; 0=no damage to plant) [5]: 20
Control of weed species SETFA after post-emergence application (100=total damage to plant; 0=no damage to plant) (Setaria faberi (SETFA)): 90

O=C(O)C(O)C[n+]1ccc(-c2ncccn2)cn1.O=C([O-])C(F)(F)F (stereo not shown) [Compound A180]
Control of weed species after post-emergence application, AMAPA [1]: 100
Control of weed species after post-emergence application, CHEAL [2]: 90
Control of weed species after post-emergence application, DIGSA [3]: 60
Control of weed species after post-emergence application, ECHCG [4]: 70
Control of weed species after post-emergence application, ELEIN (Eleusine indica (ELEIN)): 90
Control of weed species after post-emergence application, EPHHL [5]: 80
Control of weed species after post-emergence application, SETFA (Setaria faberi (SETFA)): 70

Nc1cc(-c2cc[n+](CCC(=O)O)nc2)ncn1.O=C([O-])C(F)(F)F [Compound A163]
Control of weed species after post-emergence application, AMAPA [1]: 100
Control of weed species after post-emergence application, CHEAL [2]: 60
Control of weed species after post-emergence application, DIGSA [3]: 50
Control of weed species after post-emergence application, ECHCG [4]: 40
Control of weed species after post-emergence application, ELEIN (Eleusine indica (ELEIN)): 90
Control of weed species after post-emergence application, EPHHL [5]: 50

O=C(O)CC[n+]1ccc(-c2cnc(C(F)(F)F)cn2)cn1.O=C([O-])C(F)(F)F [Compound A121]
Control of weed species AMAPA after post-emergence application (100=total damage to plant; 0=no damage to plant) [1]: 100
Control of weed species CHEAL after post-emergence application (100=total damage to plant; 0=no damage to plant) [2]: 80
Control of weed species DIGSA after post-emergence application (100=total damage to plant; 0=no damage to plant) [3]: 40
Control of weed species ECHCG after post-emergence application (100=total damage to plant; 0=no damage to plant) [4]: 40
Control of weed species ELEIN after post-emergence application (100=total damage to plant; 0=no damage to plant) (Eleusine indica (ELEIN)): 20
Control of weed species EPHHL after post-emergence application (100=total damage to plant; 0=no damage to plant) [5]: 80
Control of weed species SETFA after post-emergence application (100=total damage to plant; 0=no damage to plant) (Setaria faberi (SETFA)): 30

CC(C)(C[n+]1ccc(-c2ccncn2)cn1)C(=O)O.O=C([O-])C(F)(F)F [Compound A167]
Control of weed species after post-emergence application, AMAPA [1]: 20
Control of weed species after post-emergence application, CHEAL [2]: 70
Control of weed species after post-emergence application, DIGSA [3]: 50
Control of weed species after post-emergence application, ECHCG [4]: 60
Control of weed species after post-emergence application, ELEIN (Eleusine indica (ELEIN)): 80
Control of weed species after post-emergence application, EPHHL [5]: 90
Control of weed species after post-emergence application, SETFA (Setaria faberi (SETFA)): 40

O=C(O)CC[n+]1ccc(-c2ccnc(C(F)(F)F)c2)cn1.O=C([O-])C(F)(F)F [Compound A166]
Control of weed species after post-emergence application, AMAPA [1]: 30
Control of weed species after post-emergence application, CHEAL [2]: 50
Control of weed species after post-emergence application, DIGSA [3]: 70
Control of weed species after post-emergence application, ECHCG [4]: 50
Control of weed species after post-emergence application, ELEIN (Eleusine indica (ELEIN)): 60
Control of weed species after post-emergence application, EPHHL [5]: 60
Control of weed species after post-emergence application, SETFA (Setaria faberi (SETFA)): 40

Cc1nccc(-c2cc[n+](CCC(=O)O)nc2)n1.O=C([O-])C(F)(F)F [Compound A55]
Control of weed species CHEAL after post-emergence application (100=total damage to plant; 0=no damage to plant) [2]: 80
Control of weed species DIGSA after post-emergence application (100=total damage to plant; 0=no damage to plant) [3]: 100
Control of weed species ECHCG after post-emergence application (100=total damage to plant; 0=no damage to plant) [4]: 90
Control of weed species ELEIN after post-emergence application (100=total damage to plant; 0=no damage to plant) (Eleusine indica (ELEIN)): 100
Control of weed species EPHHL after post-emergence application (100=total damage to plant; 0=no damage to plant) [5]: 70
Control of weed species SETFA after post-emergence application (100=total damage to plant; 0=no damage to plant) (Setaria faberi (SETFA)): 100

O=C([O-])C(F)(F)F.OCC[n+]1ccc(-c2ncccn2)cn1 [Compound A195, 2-(4-pyrimidin-2-ylpyridazin-1-ium-1-yl)ethanol 2,2,2-trifluoroacetate]
Control of weed species after post-emergence application, CHEAL [2]: 60
Control of weed species after post-emergence application, DIGSA [3]: 20
Control of weed species after post-emergence application, ECHCG [4]: 10
Control of weed species after post-emergence application, ELEIN (Eleusine indica (ELEIN)): 10

Cc1n[n+](CCC(=O)O)ccc1-c1ccccn1.O=C([O-])C(F)(F)F [Compound A145]
Control of weed species AMAPA after post-emergence application (100=total damage to plant; 0=no damage to plant) [1]: 10
Control of weed species CHEAL after post-emergence application (100=total damage to plant; 0=no damage to plant) [2]: 10
Control of weed species DIGSA after post-emergence application (100=total damage to plant; 0=no damage to plant) [3]: 10
Control of weed species ECHCG after post-emergence application (100=total damage to plant; 0=no damage to plant) [4]: 0
Control of weed species ELEIN after post-emergence application (100=total damage to plant; 0=no damage to plant) (Eleusine indica (ELEIN)): 0
Control of weed species EPHHL after post-emergence application (100=total damage to plant; 0=no damage to plant) [5]: 10
Control of weed species SETFA after post-emergence application (100=total damage to plant; 0=no damage to plant) (Setaria faberi (SETFA)): 0

O=C(O)c1ccc(C[n+]2ccc(-c3ncccn3)cn2)cc1.O=C([O-])C(F)(F)F [Compound A228]
Control of weed species after post-emergence application, AMAPA [1]: 80
Control of weed species after post-emergence application, CHEAL [2]: 60
Control of weed species after post-emergence application, DIGSA [3]: 20
Control of weed species after post-emergence application, ECHCG [4]: 10
Control of weed species after post-emergence application, ELEIN (Eleusine indica (ELEIN)): 10
Control of weed species after post-emergence application, SETFA (Setaria faberi (SETFA)): 10

N[C@@H](CC[n+]1ccc(-c2ncccn2)cn1)C(=O)O.O=C(O)C(F)(F)F.O=C([O-])C(F)(F)F [Compound A201, [(1S)-1-carboxy-3-(4-pyrimidin-2-ylpyridazin-1-ium-1-yl)propyl]ammonium 2,2,2-trifluoroacetate]
Control of weed species after post-emergence application, DIGSA [3]: 80
Control of weed species after post-emergence application, ECHCG [4]: 70
Control of weed species after post-emergence application, SETFA (Setaria faberi (SETFA)): 80

CC(C[n+]1ccc(-c2ccncn2)cn1)C(=O)O.O=C([O-])C(F)(F)F (stereo not shown) [Compound A171]
Control of weed species after post-emergence application, AMAPA [1]: 100
Control of weed species after post-emergence application, CHEAL [2]: 80
Control of weed species after post-emergence application, DIGSA [3]: 60
Control of weed species after post-emergence application, ECHCG [4]: 60
Control of weed species after post-emergence application, ELEIN (Eleusine indica (ELEIN)): 80
Control of weed species after post-emergence application, SETFA (Setaria faberi (SETFA)): 60

COC(=O)c1ccc(C[n+]2ccc(-c3ncccn3)cn2)cc1.O=C([O-])C(F)(F)F [Compound A229]
Control of weed species after post-emergence application, AMAPA [1]: 10
Control of weed species after post-emergence application, CHEAL [2]: 0
Control of weed species after post-emergence application, DIGSA [3]: 20
Control of weed species after post-emergence application, ECHCG [4]: 0
Control of weed species after post-emergence application, ELEIN (Eleusine indica (ELEIN)): 0
Control of weed species after post-emergence application, SETFA (Setaria faberi (SETFA)): 10

O=C([O-])C(F)(F)F.O=P(O)(O)CCC[n+]1ccc(-c2ncccn2)cn1 [Compound A233]
Control of weed species after post-emergence application, AMAPA [1]: 100
Control of weed species after post-emergence application, CHEAL [2]: 100
Control of weed species after post-emergence application, DIGSA [3]: 60
Control of weed species after post-emergence application, ECHCG [4]: 60
Control of weed species after post-emergence application, ELEIN (Eleusine indica (ELEIN)): 50
Control of weed species after post-emergence application, SETFA (Setaria faberi (SETFA)): 70

N#Cc1ccc(-c2cc[n+](CCC(=O)O)nc2)nc1.O=C([O-])C(F)(F)F [Compound A176]
Control of weed species after post-emergence application, AMAPA [1]: 40
Control of weed species after post-emergence application, CHEAL [2]: 30
Control of weed species after post-emergence application, DIGSA [3]: 30
Control of weed species after post-emergence application, ECHCG [4]: 30
Control of weed species after post-emergence application, ELEIN (Eleusine indica (ELEIN)): 70
Control of weed species after post-emergence application, SETFA (Setaria faberi (SETFA)): 40
